PubChem BioAssay AID330 (DTP/NCI, 2004)
“And” between values parts separate entries of the source, which are not always exact repeats. Equal entries are not always repeated. Toxic doses and inconclusive results are not listed. The calls were made as follows: active = survival T/C of 150% or more; inactive = T/C below 125% in these data.

System: P388 leukemia ip, CD2F1 mice, survival T/C
Assay: NCI In Vivo Anticancer Drug Screen. Data for tumor model P388 Leukemia (intraperitoneal) in CD2F1 (CDF1) mice
Settings: endpoint: median survival time, higher = longer survival
In short: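 Mice carrying the transplanted tumor received test compound or vehicle. Survival was recorded in each group, and the value is the treated-group measurement divided by that of the vehicle-treated control group.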

[1] = dose: 50.0 mg/kg/injection, schedule: Q01DX005 (ip), vehicle: saline with Tween-80
[2] = dose: 60.0 mg/kg/injection, schedule: Q01DX005 (ip), vehicle: saline with Tween-80
[3] = dose: 120.0 mg/kg/injection, schedule: Q01DX005 (ip), vehicle: saline with Tween-80
[4] = dose: 240.0 mg/kg/injection, schedule: Q01DX005 (ip), vehicle: saline with Tween-80
[5] = dose: 50.0 mg/kg/injection, schedule: Q01DX009 (ip), vehicle: saline with Tween-80
[6] = dose: 100.0 mg/kg/injection, schedule: Q01DX009 (ip), vehicle: saline with Tween-80
[7] = dose: 200.0 mg/kg/injection, schedule: Q01DX009 (ip), vehicle: saline with Tween-80
[8] = dose: 3.12 mg/kg/injection, schedule: Q01DX009 (ip), vehicle: saline
[9] = dose: 6.25 mg/kg/injection, schedule: Q01DX009 (ip), vehicle: saline
[10] = dose: 100.0 mg/kg/injection, schedule: Q01DX005 (ip), vehicle: saline with Tween-80
[11] = dose: 200.0 mg/kg/injection, schedule: Q01DX005 (ip), vehicle: saline with Tween-80
[12] = dose: 25.0 mg/kg/injection, schedule: Q01DX009 (ip), vehicle: saline with Tween-80
[13] = dose: 12.5 mg/kg/injection, schedule: Q01DX009 (ip), vehicle: saline with Tween-80
[14] = dose: 50.0 mg/kg/injection, schedule: Q01DX009 (ip), vehicle: Klucel (hydroxypropylcellulose) (HPC)
[15] = dose: 60.0 mg/kg/injection, schedule: Q01DX005 (ip), vehicle: Klucel (hydroxypropylcellulose) (HPC)
[16] = dose: 120.0 mg/kg/injection, schedule: Q01DX005 (ip), vehicle: Klucel (hydroxypropylcellulose) (HPC)
[17] = dose: 240.0 mg/kg/injection, schedule: Q01DX005 (ip), vehicle: Klucel (hydroxypropylcellulose) (HPC)

Measured: T/C

Nc1cc2nc3ccccc3nc2cc1N
inactive: dose: 25.0 mg/kg/injection, schedule: Q01DX005 (ip), vehicle: saline with Tween-80 91 % of control | [1] 90 % of control

CC(=O)Nc1ccccc1OC(=O)NC(C)(C)C
inactive: [2] 97 % of control | [3] 100 % of control | [4] 90 % of control

COc1cc(OC)cc(C2(C(=O)[C@@H]3OC(C)(C)OC3C)SCCCS2)c1 (some centres undefined)
inactive: dose: 100.0 mg/kg/injection, schedule: Q01DX001 (ip), vehicle: Klucel (hydroxypropylcellulose) (HPC) 98 % of control | dose: 200.0 mg/kg/injection, schedule: Q01DX001 (ip), vehicle: Klucel (hydroxypropylcellulose) (HPC) 94 % of control | dose: 400.0 mg/kg/injection, schedule: Q01DX001 (ip), vehicle: Klucel (hydroxypropylcellulose) (HPC) 90 % of control

N#CC1CPCCC1N (centres undefined)
inactive: [5] 102 % of control | [6] 106 % of control | [7] 114 % of control

CC(C)CCCC(C)C1CCC2C3CC=C4CC(O)CCC4(C)C3CCC12C (centres undefined) (tested in a mixture with another compound)
inactive: [8] 87 % of control | [9] 92 % of control | dose: 12.5 mg/kg/injection, schedule: Q01DX009 (ip), vehicle: saline 94 % of control | dose: 25.0 mg/kg/injection, schedule: Q01DX009 (ip), vehicle: saline 94 % of control

Oc1c(N=Nc2nn[nH]n2)ccc2ccccc12
inactive: [1] 105 % of control | [10] 97 % of control | [11] 99 % of control

CCOc1ccc(N=C2C=C(Nc3ccc(OCC)cc3)C(=Nc3ccc(OCC)cc3)C=C2Nc2ccc(OCC)cc2)cc1
inactive: [2] 96 % of control | [3] 95 % of control | [4] 92 % of control

CC(O)CNC1CCCCC1 (centres undefined)
inactive: [12] 100 % of control | [5] 100 % of control | [6] 100 % of control

CC1=C(c2ccccc2)OC(=O)C(Cl)(Cl)C1N(c1ccccc1)c1ccccc1 (centres undefined)
inactive: [1] 88 % of control | [10] 93 % of control | [11] 93 % of control

COC(=O)c1ccc(C(=S)SC)cc1
inactive: dose: 100.0 mg/kg/injection, schedule: Q04DX002 (ip), vehicle: saline 100 % of control | dose: 200.0 mg/kg/injection, schedule: Q04DX002 (ip), vehicle: saline 100 % of control | dose: 400.0 mg/kg/injection, schedule: Q04DX002 (ip), vehicle: saline 99 % of control

Nc1ccc(S(=O)(=O)c2ccc(NCNc3ccc(S(=O)(=O)c4ccc(N)cc4)cc3)cc2)cc1
inactive: [6] 94 % of control | [7] 91 % of control | dose: 400.0 mg/kg/injection, schedule: Q01DX009 (ip), vehicle: saline with Tween-80 94 % of control

COC(=O)C/C(=C\c1cn(C(C)=O)c2ccccc12)[N+](=O)[O-]
inactive: dose: 6.25 mg/kg/injection, schedule: Q01DX005 (ip), vehicle: Klucel (hydroxypropylcellulose) (HPC) 89 % of control | dose: 12.5 mg/kg/injection, schedule: Q01DX005 (ip), vehicle: Klucel (hydroxypropylcellulose) (HPC) 98 % of control | dose: 25.0 mg/kg/injection, schedule: Q01DX005 (ip), vehicle: Klucel (hydroxypropylcellulose) (HPC) 91 % of control

ClC1=C(Cl)C(Cl)=C(Cl)C1=Cc1ccccc1
inactive: dose: 6.25 mg/kg/injection, schedule: Q01DX009 (ip), vehicle: saline with Tween-80 108 % of control | [13] 118 % of control | [12] 117 % of control | [5] 123 % of control

COC(=O)C([NH-])c1ccccc1.COC(=O)C([NH-])c1ccccc1.[Cl][Pd][Cl] (centres undefined)
inactive: dose: 100.0 mg/kg/injection, schedule: Q04DX003 (ip), vehicle: saline 108 % of control | dose: 200.0 mg/kg/injection, schedule: Q04DX003 (ip), vehicle: saline 104 % of control | dose: 400.0 mg/kg/injection, schedule: Q04DX003 (ip), vehicle: saline 103 % of control

CC1=C2[C@H]3OC(=O)[C@@H](C)[C@@H]3CC[C@@]2(C)C=C/C1=N\O
inactive: [1] 103 % of control | [10] 95 % of control | [11] 96 % of control

CC(C#N)CCCC#N (centres undefined)
inactive: [13] 100 % of control | [12] 100 % of control | [5] 100 % of control

CCOc1ccc2nc3ccccc3c(N)c2c1
inactive: dose: 7.5 mg/kg/injection, schedule: Q01DX005 (ip), vehicle: saline with Tween-80 103 % of control and 112 % of control | dose: 15.0 mg/kg/injection, schedule: Q01DX005 (ip), vehicle: saline with Tween-80 113 % of control | dose: 30.0 mg/kg/injection, schedule: Q01DX005 (ip), vehicle: saline with Tween-80 124 % of control

O=c1oc(-c2ccco2)ns1
inactive: dose: 12.5 mg/kg/injection, schedule: Q01DX009 (ip), vehicle: Klucel (hydroxypropylcellulose) (HPC) 97 % of control | dose: 25.0 mg/kg/injection, schedule: Q01DX009 (ip), vehicle: Klucel (hydroxypropylcellulose) (HPC) 110 % of control | [14] 97 % of control

O=C1OC[C@@H]2[C@H]1[C@H]1O[C@@H]2c2cc3ccccc3cc21
inactive: [2] 104 % of control | [3] 101 % of control | [4] 101 % of control

C=C(C)C1(n2[nH]c(=O)n(-c3ccccc3)c2=O)CCC(C)=CC1=O (centres undefined)
inactive: dose: 100.0 mg/kg/injection, schedule: Q01DX001 (ip), vehicle: saline with Tween-80 102 % of control | dose: 200.0 mg/kg/injection, schedule: Q01DX001 (ip), vehicle: saline with Tween-80 95 % of control | dose: 400.0 mg/kg/injection, schedule: Q01DX001 (ip), vehicle: saline with Tween-80 87 % of control

Cc1ccccc1C(C)(O)c1cnc(C)n1Cc1ccccc1 (centres undefined)
inactive: [15] 111 % of control | [16] 96 % of control | [17] 91 % of control

Cc1ccc2nc(-c3cccc(Cl)c3)oc(=O)c2c1
inactive: [14] 110 % of control | dose: 100.0 mg/kg/injection, schedule: Q01DX009 (ip), vehicle: Klucel (hydroxypropylcellulose) (HPC) 102 % of control | dose: 200.0 mg/kg/injection, schedule: Q01DX009 (ip), vehicle: Klucel (hydroxypropylcellulose) (HPC) 92 % of control

CC12CCC(S)CC1=CCC1C2CCC2(C)/C(=N/NC(N)=S)CCC12 (centres undefined)
inactive: dose: 25.0 mg/kg/injection, schedule: Q01DX009 (ip), vehicle: distilled water + Tween-80 105 % of control | dose: 50.0 mg/kg/injection, schedule: Q01DX009 (ip), vehicle: distilled water + Tween-80 100 % of control | dose: 100.0 mg/kg/injection, schedule: Q01DX009 (ip), vehicle: distilled water + Tween-80 105 % of control | dose: 200.0 mg/kg/injection, schedule: Q01DX009 (ip), vehicle: distilled water + Tween-80 98 % of control | dose: 400.0 mg/kg/injection, schedule: Q01DX009 (ip), vehicle: distilled water + Tween-80 107 % of control

CC(C)[CH2][Ge]([Cl])([Cl])[Cl]
inactive: dose: 0.78 mg/kg/injection, schedule: Q01DX009 (ip), vehicle: saline 103 % of control | dose: 1.56 mg/kg/injection, schedule: Q01DX009 (ip), vehicle: saline 106 % of control | [8] 94 % of control | [9] 119 % of control

Fc1cccc(Cl)c1C(Nc1nccs1)Nc1nccs1
inactive: [15] 107 % of control | [16] 103 % of control | [17] 104 % of control
